Measured values taken from patent US8541471B2, “Water-soluble strontium salts for use in treatment of cartilage and/or bone conditions” (Osteologix A/S, priority 2003, dated 2013).
Read-outs that look alike come from different tables or passages of the source. One block for each compound: values may come before it.

Assays:
[1] = not given; remark: listed apart in the source
[2] = biological target: T1, calcium-sensing receptor (CaR) (Homo sapiens, UniProt P41180); conditions: studies have shown; cited from earlier work
T1 sequence (P41180 20-1078): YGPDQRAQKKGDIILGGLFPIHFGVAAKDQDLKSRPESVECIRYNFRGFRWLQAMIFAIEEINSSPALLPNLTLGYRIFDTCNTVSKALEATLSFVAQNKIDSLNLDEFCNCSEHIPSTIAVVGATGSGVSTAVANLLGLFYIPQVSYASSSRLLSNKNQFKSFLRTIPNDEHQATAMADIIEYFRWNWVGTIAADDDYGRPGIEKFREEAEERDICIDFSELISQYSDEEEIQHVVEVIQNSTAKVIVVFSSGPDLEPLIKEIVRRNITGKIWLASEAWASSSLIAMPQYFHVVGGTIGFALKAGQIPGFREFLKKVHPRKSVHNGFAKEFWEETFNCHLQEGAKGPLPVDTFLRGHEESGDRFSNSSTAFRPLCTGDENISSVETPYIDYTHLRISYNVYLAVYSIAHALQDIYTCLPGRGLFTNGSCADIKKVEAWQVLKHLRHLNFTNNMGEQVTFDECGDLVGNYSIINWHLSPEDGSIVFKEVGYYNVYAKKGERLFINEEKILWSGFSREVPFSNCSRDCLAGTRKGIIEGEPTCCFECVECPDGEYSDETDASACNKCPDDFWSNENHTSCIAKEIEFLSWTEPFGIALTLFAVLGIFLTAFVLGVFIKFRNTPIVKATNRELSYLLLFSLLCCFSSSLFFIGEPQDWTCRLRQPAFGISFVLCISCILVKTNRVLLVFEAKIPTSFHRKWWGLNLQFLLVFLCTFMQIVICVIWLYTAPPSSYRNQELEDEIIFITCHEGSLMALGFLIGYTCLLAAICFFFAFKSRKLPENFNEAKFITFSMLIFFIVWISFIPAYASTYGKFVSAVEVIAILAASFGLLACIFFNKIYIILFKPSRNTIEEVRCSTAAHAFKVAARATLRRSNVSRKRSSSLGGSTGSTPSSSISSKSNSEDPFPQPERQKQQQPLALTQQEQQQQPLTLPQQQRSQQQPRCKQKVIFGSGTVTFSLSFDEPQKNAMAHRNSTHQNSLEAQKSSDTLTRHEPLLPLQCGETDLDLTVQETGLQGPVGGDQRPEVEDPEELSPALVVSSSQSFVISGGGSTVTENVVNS

Compound: [Cl-].[Cl-].[Sr+2] [Chloride, strontium chloride, reference compound]
AUC (rat, in vivo, po): 7300 mg·min/L
time to maximum serum strontium concentration (rats, single oral gavage): approximately 2 hours

Compound: O=C([O-])/C=C/C(=O)[O-].[Sr+2] [Fumerate, strontium fumarate]
SOLUBILITY AT 40° C. pH 7.5 [1]: 977 mg/L
SOLUBILITY AT ROOM TEMPERATURE (22-24° C.) pH 7.5 [1]: 1215 mg/L

AUC (female, Wistar HanTac:WH (GALAS), rat, in vivo, po): 10100 mg·min/L
rate of metabolism (second peak of model fit) (rat, in vivo): rests longer in the serum
Compound: N[C@@H](CCC(=O)[O-])C(=O)[O-].O.O.O.O.O.O.[Sr+2] [L-glutamate, strontium glutamate hexahydrate]

Compound: O=C([O-])/C=C\C(=O)[O-].[Sr+2] [Maleate, strontium maleate]
SOLUBILITY AT 40° C. pH 7.5 [1]: 1457 mg/L
SOLUBILITY AT ROOM TEMPERATURE (22-24° C.) pH 7.5 [1]: 1680 mg/L

SOLUBILITY AT 40° C. pH 7.5 [1]: 1970 mg/L
SOLUBILITY AT ROOM TEMPERATURE (22-24° C.) pH 7.5 [1]: 890 mg/L
time to maximum serum strontium concentration (rat, in vivo, po): approximately 2 hours
Compound: N#Cc1c(N(CC(=O)[O-])CC(=O)[O-])sc(C(=O)[O-])c1CC(=O)[O-].[Sr+2].[Sr+2] [Ranelate, distrontium salt of 2-[N,N-di(carboxymethyl)amino]-3-cyano-4-carboxymethylthiophene-5-carboxylic acid, reference compound]

Compound: [Sr+2] [strontium]
activity at the calcium-sensing receptor (CaR) [2]: full agonist

Compound: strontium alpha-ketoglutarate [α-ketogluterate]
rate of metabolism (second peak of model fit) (rats, FIGS. 9A-B): quickly metabolized
